{"source": "patent US10226452B2", "about": "“Benzoxazolone derivatives as acid ceramidase inhibitors, and their use as medicaments” (FONDAZIONE ISTITUTO ITALIANO DI TECNOLOGIA, priority 2014, dated 2019)", "key": {"[1]": {"target": "AC (Mus musculus (Mouse), UniProt Q9WV54)", "sequence (Q9WV54 19-141)": "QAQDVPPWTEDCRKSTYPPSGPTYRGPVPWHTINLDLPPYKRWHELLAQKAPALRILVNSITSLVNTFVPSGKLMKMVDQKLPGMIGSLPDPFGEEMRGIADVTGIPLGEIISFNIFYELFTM", "sequence (Q9WV54 142-394)": "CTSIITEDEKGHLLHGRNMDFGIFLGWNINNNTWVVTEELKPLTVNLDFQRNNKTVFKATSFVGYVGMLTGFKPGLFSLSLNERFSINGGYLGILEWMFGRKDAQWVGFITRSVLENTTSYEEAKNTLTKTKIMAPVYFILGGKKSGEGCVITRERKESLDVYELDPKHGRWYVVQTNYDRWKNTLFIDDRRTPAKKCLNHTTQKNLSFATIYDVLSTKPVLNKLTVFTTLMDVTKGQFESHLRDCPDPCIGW", "assay": "AC activity ex vivo in mouse tissues after systemic administration", "settings": "mice", "description": "Specifically, it is evidences the effects of compound of Example 7 or vehicle (15% polyethylene glycol, 15% Tween80, 70% saline) on AC activity in mouse lungs. AC activity measured ex vivo 30 minutes or 3 hours after intraperitoneal injection of compound of Example 7 (10 mg-kg^−1). Results are expressed as mean±s.e.m. (n=6). ***p<0.001 vs vehicle, one-way ANOVA followed by Dunnet.\nSpecifically, FIG. 7 illustrates the effects of compound of Example 25 or vehicle (15% polyethylene glycol, 15% Tween80, 70% saline) on AC activity in mouse lungs (oral administration, A) or cerebral cortex (intraperitoneal administration, B) and on ceramide levels (C and D). Results are expressed as mean±s.e.m. (n=6). *p<0.05, **p<0.01, ***p<0.001 vs vehicle, one-way ANOVA followed by Dunnet.\nhAC protein preparation (10 μg) was preincubated with inhibitors (final DMSO concentration 1%) in assay buffer (100 mM sodium phosphate, 0.1% Nonidet P-40, 150 mM NaCl, 3 mM DTT, 100 mM sodium citrate, pH 4.5) for 30 min at 37° C. Reactions were started by the addition of 50 μM N-lauroyl ceramide (Nu-Chek Prep, Elysian, Minn.) and carried on for 30 min at 37° C. Reactions were stopped by addition of a mixture of chloroform/methanol (2:1, vol/vol) containing 1 nmol 11-lauroleic acid (NuChek Prep). The organic phases were collected, dried under nitrogen and analyzed by UPLC/MS (Acquity, Waters). In the negative-ion mode monitoring the reaction product (lauric acid, m/z=199) using 11-lauroleic acid as internal standard."}, "[2]": {"tested_on": "SW403 cells", "assay": "sphingosine and ceramide levels in SW403 cells", "assay_type": "cell-based, human", "settings": "0.1-20 μM, 3 hours", "description": "(A) Intact cells were treated with compound of Example 25 (0.1-20 μM) or vehicle and AC activity was measured 3 hours later in cell lysates. (B-E) Intact cells were exposed to compound of Example 25 (0.1-20 μM) for 3 hours and sphingosine/sphinganine (B), dihydroceramides (C), medium chain ceramides (D), long chain ceramides (E) were quantified. Results are expressed as mean±s.e.m. (n=3). *p<0.05, **p<0.01, ***p<0.001 vs vehicle, two-way ANOVA followed by Dunnet.\n(A) Intact cells were treated with compound of Example 25 (20 μM) or vehicle and AC activity was measured 1 to 48 hours later in cell lysates. (B-E) Intact cells were exposed to compound of Example 25 (20 μM) and sphingosine (B), C16:0 dihydroceramide (C), C16:0 ceramide (D) were quantified. Results are expressed as mean±s.e.m. […]\nLipids were extracted from mouse tissue lysate with a chloroform/MeOH mixture (2:1 v/v, 3 mL) containing internal standards. […] Ceramides, sphingosine and sphinganine were analyzed by LC-MS/MS, using a Waters Acquity UPLC coupled with a Waters Xevo TQMS and interfaced with ESI. […]\nTissue-derived sphingosine and sphinganine were identified by comparison of their LC retention times and MS^2 fragmentation patterns with those of authentic standards (Avanti Polar Lipids). Extracted ion chromatograms were used to quantify sphingosine ([…], m/z 300.5>282.5) and sphinganine standard (C18:0, m/z 303>285). […]"}, "[3]": {"target": "caspase-8 (h) (Homo sapiens (Human), UniProt Q14790)", "sequence (Q14790 217-374)": "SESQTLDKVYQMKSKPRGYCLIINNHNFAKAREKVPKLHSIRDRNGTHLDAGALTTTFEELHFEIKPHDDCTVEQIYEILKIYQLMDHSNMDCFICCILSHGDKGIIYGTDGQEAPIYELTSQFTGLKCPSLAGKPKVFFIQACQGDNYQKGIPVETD", "sequence (Q14790 385-479)": "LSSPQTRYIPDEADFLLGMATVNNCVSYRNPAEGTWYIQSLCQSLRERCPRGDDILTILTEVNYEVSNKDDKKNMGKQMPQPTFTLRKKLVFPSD", "assay": "Cerep enzyme inhibition screen: caspase-8", "assay_type": "biochemical", "settings": "mean of two determinations, read-out: Inhibitory activity (% Inh. at 10 μM), mean", "text": "Compound of Example 25 falling in both Formula (I) and (Ia) was selected to be tested for off-target effects on a set of enzymes that include proteases (aspartic, cysteine, and serine), cyclooxygenases as well as lipoxygenases and group IV phospholipase (sPLA2) (Table 3). [table]"}}, "data": [{"smiles": "O=C(NCCCCc1ccccc1)n1c(=O)oc2cc(-c3ccc(F)cc3)ccc21", "note": "[Example 25, 6-(4-Fluorophenyl)-2-oxo-N-(4-phenylbutyl)-1,3-benzoxazole-3-carboxamide]", "values": [{"measurement": "AC activity in lungs", "setting": "[1]; 3 or 10 mg-kg^−1, intraperitoneal or oral (FIG. 7A oral)", "result": "time and dose-dependent inhibition of AC activity"}, {"measurement": "AC activity in brain cortex", "setting": "[1]; 3 or 10 mg-kg^−1, intraperitoneal or oral (FIG. 7B intraperitoneal)", "result": "time and dose-dependent inhibition of AC activity"}, {"measurement": "di-hydro ceramides and ceramide species levels", "setting": "[2]", "result": "intracellular accumulation of various di-hydro ceramides and ceramide species"}, {"measurement": "sphingosine levels", "setting": "[2]", "result": "parallel decrease in sphingosine levels"}, {"measurement": "inhibition at 10 µM", "setting": "[3]", "result": -0.9, "unit": "%"}]}, {"smiles": "O=C(NCCCCc1ccccc1)n1c(=O)oc2cc(Br)ccc21", "note": "[Example 7, 6-Bromo-2-oxo-N-(4-phenylbutyl)-1,3-benzoxazole-3-carboxamide]", "values": [{"measurement": "AC activity in lungs", "setting": "[1]; 10 mg-kg^−1 intraperitoneal, after 30 minutes or 3 hours", "result": "time-dependent inhibition of AC activity in lungs"}]}]}
